According to US4005146A, “Resolution of dl-allethrolone” (Roussel-UCLAF, priority 1971, dated 1977):

Assays:
house flies = test: Lethal insecticidal activity on house flies, topical application to dorsal thorax; assay type: in vivo; conditions: for % Mortality / DL50: 24 hours after topical treatment, 1 μl acetone solution
Procedure: The lethal insecticidal activity of d-allethrolone chrysanthemate (compound A) was compared with dl-allethrolone chrysanthemate (compound B) on house flies by topically applying 1 μl of an acetone solution thereof to the dorsal thorax of the insect. 50 insects were used for each dose and the number of dead was determined 24 hours after the treatment.

[1] = test system: female german cockroaches; test: Knock down effect on female german cockroaches by direct spraying; assay type: in vivo; conditions: for % KD after 5 min. / % KD after 10 min. / % KD after 15 min. / % KD after 30 min. / % KD after 60 min.: direct spraying 0.5 ml kerosene/acetone; for KD50 times more active than compound B: compound A vs compound B
Procedure: The knock down effect of the same two compounds was determined on female german cockroaches by direct spraying as 0.5 ml of a solution in equal volumes of kerosene and acetone. 20 insects were used for each test and the knock down effect was determined at 5,10,15,30 and 60 minutes after treatment.

[2] = vs chrysanthemic acid ester of levo allethrolone; Elliott, J. Sci. Food Agr. 1954; cited from earlier work
[3] = Insecticidal activity of d-allethrolone d-trans chrysanthemate vs the dl-allethrolone ester (general statement); assay type: in vivo

## C=CCC1=C(C)C(OC(=O)C2C(C=C(C)C)C2(C)C)CC1=O (racemic) [B, dl-allethrolone chrysanthemate, reference compound]
House flies; 50 mg/l
  % Mortality: 16.2%
House flies; 100 mg/l
  % Mortality: 33.7%
House flies; 200 mg/l
  % Mortality: 49.0%
House flies; 300 mg/l
  % Mortality: 55.1%
House flies
  DL50: 224.3 mg/L
[1]; 250 mg/l
  % KD after 5 min.: 7.5%
  % KD after 10 min.: 7.5%
  % KD after 15 min.: 12.5%
  % KD after 30 min.: 12.5%
  % KD after 60 min.: 12.5%
[1]; 500 mg/l
  % KD after 5 min.: 30.9%
  % KD after 10 min.: 50.0%
  % KD after 15 min.: 54.7%
  % KD after 30 min.: 47.6%
  % KD after 60 min.: 45.2%
[1]; 1000 mg/l
  % KD after 5 min.: 46.1%
  % KD after 10 min.: 64.1%
  % KD after 15 min.: 74.3%
  % KD after 30 min.: 79.4%
  % KD after 60 min.: 89.7%

## C=CCC1=C(C)[C@@H](OC(=O)C2C(C=C(C)C)C2(C)C)CC1=O (stereo partly drawn) [A, d-allethrolone chrysanthemate]
House flies; 25 mg/l
  % Mortality: 49.0%
House flies; 50 mg/l
  % Mortality: 45.6%
House flies; 75 mg/l
  % Mortality: 76.6%
House flies; 100 mg/l
  % Mortality: 65.3%
House flies
  DL50: 54 mg/L
House flies; compound A vs compound B, Table II
  times more active than compound B (lethal activity): 4.15 times
[1]; 250 mg/l
  % KD after 5 min.: 45.0%
  % KD after 10 min.: 52.5%
  % KD after 15 min.: 65.0%
  % KD after 30 min.: 62.5%
  % KD after 60 min.: 65.0%
[1]; 500 mg/l
  % KD after 5 min.: 61.9%
  % KD after 10 min.: 71.4%
  % KD after 15 min.: 83.3%
  % KD after 30 min.: 85.7%
  % KD after 60 min.: 88.0%
[1]; 1000 mg/l
  % KD after 5 min.: 100%
  % KD after 10 min.: 100%
  % KD after 15 min.: 100%
  % KD after 30 min.: 100%
  % KD after 60 min.: 100%
[1]; 5 minutes
  KD50 times more active than compound B: about 4.3 times
[1]; 30 minutes
  KD50 times more active than compound B: 2.8 times
[2]
  times more effective as an insecticide than the ester of levo allethrolone: 4 times

## C=CCC1=C(C)[C@@H](OC(=O)[C@@H]2[C@@H](C=C(C)C)C2(C)C)CC1=O [d-allethrolone d-trans chrysanthemate]
[3]
  insecticidal activity relative to the corresponding dl-allethrolone ester: much superior insecticidal activity
